Laboratory results published in PMC7917821, “In Vitro and In Silico Studies of Soluble Epoxide Hydrolase Inhibitors from the Roots of Lycopus lucidus” (Plants, 2021).
Read-outs that look alike come from different tables or passages of the source.

Tests used:
sEH [1] = biological target: T1, sEH (Homo sapiens, UniProt P34913); design: method as in PMID 26548595, PMID 32972033, doi:10.1039/C6RA04207D; settings: earlier reports; cited from earlier work
T1 construct: purchased Cayman 10011669
T1 sequence (P34913 1-555): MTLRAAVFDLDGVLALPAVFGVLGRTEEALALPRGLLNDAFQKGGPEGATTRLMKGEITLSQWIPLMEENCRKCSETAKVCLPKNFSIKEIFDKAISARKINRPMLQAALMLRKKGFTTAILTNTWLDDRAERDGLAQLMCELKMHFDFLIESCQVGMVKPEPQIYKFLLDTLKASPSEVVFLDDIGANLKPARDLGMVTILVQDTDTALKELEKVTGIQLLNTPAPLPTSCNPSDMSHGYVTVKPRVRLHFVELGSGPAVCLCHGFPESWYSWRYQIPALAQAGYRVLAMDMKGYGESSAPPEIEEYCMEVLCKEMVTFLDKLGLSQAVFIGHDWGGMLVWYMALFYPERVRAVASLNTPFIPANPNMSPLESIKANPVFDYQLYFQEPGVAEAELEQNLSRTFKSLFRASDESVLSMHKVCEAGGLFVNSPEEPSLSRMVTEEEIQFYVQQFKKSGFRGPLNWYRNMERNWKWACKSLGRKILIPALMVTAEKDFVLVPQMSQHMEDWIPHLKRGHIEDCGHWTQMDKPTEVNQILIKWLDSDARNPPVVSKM

sEH [2] = biological target: T1, sEH; test: sEH inhibitory activity assay (fluorometric, PHOME substrate); assay type: biochemical; settings: for IC50: PHOME substrate, triplicate, mean ± SD; for inhibition at 100 µM: read-out: sEH inhibitory activity
Description: The tests were conducted using a multi plate system of the fluorometric photometer at excitation and emission wavelengths of 330 and 465 nm, respectively. […] To identify potential inhibitors of sEH, all compounds were measured at 100 µM concentration.
(§1) The inhibitory activities on the sEH were measured according to the modified methods in previous papers. PHOME was used as a substrate to examine the inhibitions of sEH, which was determined using a hydrolysis reaction of PHOME. sEH was diluted in Bis Tris–HCl buffer (25 mM containing 0.1 mg/mL BSA, pH 7.0) at 12.15 ng/mL. In a 96-well plate, 130 μL of recombinant human sEH, 20 μL of sample, and 50 μL of 40 mM PHOME were added. The absorbance was measured at excitation filter 330 nm and emission filter 465 nm for 30 min at an interval of 30 s after adding the last solution in a 96-well plate. All assays were performed in triplicate, using microplate reader (Tecan infinite F200, Grödig, Austria). Inhibitory activity (%) was calculated using the following equation:(1) Inhibitory Activity (%)=100−[Δsample / Δcontrol]×100 where Δcontrol and Δsample are the changed fluorescence […], respectively.
The enzyme inhibition parameter IC50 was calculated by fitting hyperbola equations to the data using nonlinear regression of the plot using Sigma Plot (SPP Inc., Chicago, IL, USA.). The experimental results were performed in triplicate, and presented as the means ± SD.

sEH [3] = biological target: T1, sEH; test: Enzyme kinetics on sEH (Lineweaver–Burk and Dixon plots); assay type: biochemical; settings: for Ki: Dixon plot; for sEH inhibition Type: Lineweaver–Burk plots, various substrate concentrations
Description: The enzymatic kinetics of these compounds (7–10) were determined by calculating the initial velocity of each inhibitor at various substrate concentrations (0.19–5 mM) (Figure 2). […] This mixed type had bound to allosteric sites, a site different from the active site. In addition, the inhibitory constant values (Ki) were calculated using the Dixon plot revised from the Lineweaver–Burk plot.
as §1

Row | Compound | IC50 (sEH [2]) | inhibition at 100 µM (sEH [2]) | inhibition at 100 µM (sEH [2]; at 100 µM concentration) | Ki (sEH [3]) | sEH inhibition Type (sEH [3]) | sEH inhibitory activity previously shown (sEH [1])
1 | C=C(C)[C@@H]1CC[C@]2(C(=O)O)CC[C@]3(C)[C@H](CC[C@@H]4[C@@]5(C)CC[C@H](O)C(C)(C)[C@@H]5CC[C@]43C)[C@@H]12 [Compound 1, betulinic acid] | 67.8 ± 3.2 µM | > 50% | – | – | – | significant sEH inhibitory activity
2 | C[C@H]1[C@H](C)CC[C@]2(C(=O)O)CC[C@]3(C)C(=CC[C@@H]4[C@@]5(C)CC[C@H](O)C(C)(C)[C@@H]5CC[C@]43C)[C@H]12 [Compound 3, ursolic acid] | 42.1 ± 4 µM | – | > 50% | – | – | significant sEH inhibitory activity
3 | COC(=O)[C@H](O)Cc1ccc(O)cc1 [Compound 6, latifolicinin C] | 52 ± 1.9 µM | – | > 50% | – | – | –
4 | COc1ccc(CCO[C@@H]2O[C@H](CO)[C@@H](OC(=O)/C=C/c3ccc(O)c(OC)c3)[C@H](O[C@@H]3O[C@@H](C)[C@H](O)[C@@H](O)[C@H]3O)[C@H]2O)cc1O [Compound 8, martynoside] | 19.5 ± 4.1 µM | – | > 50% | 5.7 µM | mixed type inhibitor | significant sEH inhibitory activity

Continued, in another order:

Row | IC50 (sEH [2]) | inhibition at 100 µM (sEH [2]) | inhibition at 100 µM (sEH [2]; at 100 µM concentration) | Ki (sEH [3]) | sEH inhibition Type (sEH [3]) | Compound | sEH inhibitory activity previously shown (sEH [1])
5 | 16.8 ± 0.6 µM | – | > 50% | 9.2 µM | competitive inhibitors | COC(=O)[C@@H](Cc1ccc(O)c(O)c1)OC(=O)/C=C/c1ccc(O)c(O)c1 [Compound 7, methyl rosmarinate] | –
6 | 10.6 ± 3.2 µM | – | > 50% | 1.9 µM | competitive inhibitors | COC(=O)[C@@H](Cc1ccc(O)c(O)c1)OC(=O)/C=C/c1ccc(O)c2c1[C@H](C(=O)OC)[C@@H](c1ccc(O)c(O)c1)O2 [Compound 9, dimethyl lithospermate] | –
7 | 35.7 ± 2.1 µM | – | > 50% | 7.6 µM | competitive inhibitors | COC(=O)[C@H]1c2c(/C=C/C(=O)O[C@H](Cc3ccc(O)c(O)c3)C(=O)O)ccc(O)c2O[C@@H]1c1ccc(O)c(O)c1 [Compound 10, 9″″-methyl lithospermate] | –
